From patent publication US11446308B2, “Methods and compositions for the prevention and treatment of hearing loss” (St. Jude Children's Research Hospital, priority 2015, dated 2022)
Read-outs that look alike come from different tables or passages of the source. Residues, ends and D or L forms follow the SMILES beside them. *: point of attachment. Cbz = O=C(OCc1ccccc1)*; CH2F = FC*

Assays:
[1] = test system: hair cells in mouse cochlear explants
[2] = test system: hair cells in zebrafish lateral line neuromasts; assay: Protection against cisplatin-induced hair cell loss in zebrafish lateral lines in vivo; settings: 5-dpf larvae, 5 μM cisplatin
[3] = test system: hair cells in zebrafish lateral line neuromasts; settings: for Zebrafish LD50: 5-dpf larvae
Description: The experiments were performed with 5-dpf larval zebrafish of the *AB wild-type strain. Dose-response studies were performed to find the cisplatin concentration at which most of the hair cells in each neuromast were killed in the absence of a protective compound and at the same DMSO concentration (<0.2%).
Experiments were performed in 24-well plates with 5 fish per well in volumes of 1-2 mL. Fish were incubated with 5 μM and stained with 0.005% DASPEI vital dye for 15 minutes. After two washes with egg water, fish were visualized in an epiflourescence microscope. […] Results were plotted as percent survival of hair cells in the cisplatin-treated fish relative to the untreated fish (FIG. 4A-E).

HEI-OC1 cells [4] = test system: HEI-OC1 cells
[5] = test system: outer hair cells (OHCs) in mouse cochlear explants; assay: Protection against cisplatin-induced hair cell loss in neonatal (P3) mouse cochlear explants; type: cell-based; settings: for OHC survival: 24 hr cisplatin co-treatment; for Explant Cisplatin LD50: LD50, unnumbered table; for IC50: read-out: Mouse Explant IC50; for OHCs protected against cisplatin (For x%): level of protection to which the stated explant IC50 refers
HEI-OC1 cells [6] = assay: Caspase-3/7 Glo assay, cisplatin-induced apoptosis in HEI-OC1 cell line
[7] = cited from earlier work
CDK1, 2, 4, 6 and 9 = settings: range over the kinases; cited from earlier work
mouse cochlear explants = settings: cited from earlier work
[8] = test system: mouse medulloblastoma neurosphere lines and human neuroblastoma cell lines; assay: Interference with cisplatin's killing function in tumor cell lines (Cell Titer Glo); type: cell-based; settings: 48 hours, cisplatin 23 μM, compound 3×IC50
Description: FIG. 11 addresses interference with cisplatin's killing function in tumors. Four neurosphere lines derived from mouse medulloblastoma (MB) and two human neuroblastoma (NB) cell lines were tested. HEI-OC1 cell line was tested as controls.
Table 1 lists the top 18 compound hits in the screen in terms of high potency and low toxicity. The top ten compounds were further evaluated by a viability assay (Cell Titer Glo, Promega) in medulloblastoma neurosphere cell lines and neuroblastoma cell lines to test whether they inhibit the ability of cisplatin to kill the tumor cells. The majority had no antagonistic effect on cisplatin's antitumor activity (data not shown) and are therefore safe to use systemically together with cisplatin during chemotherapy to protect against cisplatin-induced hearing loss.

[9] = Mus musculus, HEI-OC1, 22 h, read-out: HEI-OC1 IC50
[10] = Mus musculus, HEI-OC1, read-out: HEI-OC1 IC50
[11] = Mus musculus, 24 h, P3 cochlear explants, 50 μM cisplatin, 24 hrs
[12] = Cell Titer Glo, compound without cisplatin, 40 μM to 40 nM, 22 hrs
[13] = P3 cochlear explants, 50 μM cisplatin, 24 hrs
[14] = read-out: HEI-OC1 IC50, Caspase-3/7 Glo, 50 μM cisplatin, 22 hrs

## CC[C@H](CO)Nc1nc(NCc2ccccc2O)c2ncn(C(C)C)c2n1 [Compound 9, Olomoucine II]
[1]; mouse, 24 h
  Explant Cisplatin LD50: > 33000 nM
  Mouse Explant LD50: >33 µM
[2]
  Zebrafish IC50: No
[3]
  Zebrafish LD50: >50 µM
HEI-OC1 cells [4]; mouse, 22 h
  HEI-OC1 LD50: >40 µM
[5]; 50 μM cisplatin, 24 hrs
  protection against cisplatin-induced hair cell loss in cochlear explants: protect against cisplatin-induced hair cell loss
[5]
  OHC survival: 100%
  Explant Cisplatin LD50: 3,000 nM
HEI-OC1 cells [6]; [9]
  IC50: 800 nM
HEI-OC1 cells [6]; [10]
  IC50: 800 nM

## CCOc1cc2ncc(C#N)c(Nc3ccc(F)c(Cl)c3)c2cc1NC(=O)/C=C/CN(C)C [Compound 3, Pelitinib]
[1]; mouse, 24 h
  Mouse Explant LD50: <13 µM
[2]
  Zebrafish IC50: No
[3]
  Zebrafish LD50: <27 µM
HEI-OC1 cells [4]; mouse, 22 h
  HEI-OC1 LD50: >40 µM
[5]; [11]
  IC50: ~6000 nM
[5]
  OHCs protected against cisplatin (For x%): (For 50%)
HEI-OC1 cells [6]; [9]
  IC50: 600 nM

## Cc1ncc(-c2ccnc(Nc3ccc(S(C)(=O)=O)cc3)n2)n1C(C)C [SJZuo-19, AZD5438]
[1]; mouse, 24 h
  Explant Cisplatin LD50: < 1000 nM
[5]
  Explant Cisplatin LD50: ~25 nM
[7]
  oral bioavailability, F: 91%

## Sc1nc2ccccc2s1 [Compound 10, 2-Mercapto-benzothiazole]
HEI-OC1 cells [4]; [12]
  HEI-OC1 LD50: >10 µM
[5]; [11]
  IC50: > 49000 nM
HEI-OC1 cells [6]; [9]
  IC50: 7000 nM

## CN[C@H](C#Cc1c(F)ccc2c1/C(=C/c1[nH]ccc1OC)C(=O)N2)CO [Compound 15]
HEI-OC1 cells [4]; mouse, 22 h
  HEI-OC1 LD50: >10 µM
HEI-OC1 cells [6]; [9]
  IC50: 100 nM

## Cyanocobalamin (vitamin B12) [Compound 6]
[1]; P3 cochlear explants
  Mouse Explant LD50: >21 µM
HEI-OC1 cells [4]; [12]
  HEI-OC1 LD50: >40 µM
[5]; [13]
  IC50: ~21000 nM
[5]
  OHCs protected against cisplatin (For x%): (For 53%)
HEI-OC1 cells [6]; [14]
  IC50: 4200 nM

## N.N.[Cl][Pt][Cl] [cisplatin, reference compound]
[1]; 50 μM, 24 hrs
  death of outer hair cells (OHCs): ~40%
[3]; 5 μM, 20 hrs, no protective compound
  hair cells killed: 91%

## O=C([O-])c1cc(/N=N/c2ccc(O)c(C(=O)[O-])c2)ccc1O.[Na+].[Na+] [Compound 2, Olsalazine sodium]
[1]; P3 cochlear explants
  Mouse Explant LD50: >30 µM
[2]
  Zebrafish IC50: No
[3]
  Zebrafish LD50: >30 µM
HEI-OC1 cells [4]; [12]
  HEI-OC1 LD50: >40 µM
[5]; [13]
  IC50: ~30000 nM
[5]
  OHCs protected against cisplatin (For x%): (For 50%)
HEI-OC1 cells [6]; [14]
  IC50: 6200 nM

## O=C(NC1CCNCC1)c1n[nH]cc1NC(=O)c1c(Cl)cccc1Cl [SJZuo-20, AT7519]
[1]; mouse, 24 h
  Explant Cisplatin LD50: < 1000 nM
CDK1, 2, 4, 6 and 9
  IC50: […]
[5]
  Explant Cisplatin LD50: ~25 nM
HEI-OC1 cells [6]; [10]
  IC50: 380 nM
[7]
  oral bioavailability, F: < 1%

## O=C1C=C2C(=CCOC2O)O1 (stereo not drawn) [Compound 11, Patulin]
[5]; Mus musculus, 24 h
  IC50: 3000 to 9000 nM
HEI-OC1 cells [6]; [9]
  IC50: 700 nM

## COc1cccc(-c2c[nH]c3c(N/N=C/c4ccncc4)ncnc23)c1 [Compound 17]
HEI-OC1 cells [4]; mouse, 22 h
  HEI-OC1 LD50: >40 µM
HEI-OC1 cells [6]; [9]
  IC50: 2100 nM

## Cc1ccc(C(=O)Cn2c3c(sc2=N)CCCC3)cc1 [Pifithrin-α, reference compound]
HEI-OC1 cells [6]; 50 μM cisplatin
  concentration for full reduction of caspase-3/7 activity: 34 µM
HEI-OC1 cells [6]; read-out: IC50, reduction of caspase-3/7 activity (caspase-3 cleavage), reference compound, 50 μM cisplatin
  IC50: 17000 nM
Mouse cochlear explants; 20-100 μM
  damage at protective doses: damage the hair cell stereocillia
Mouse cochlear explants; mouse cochlear explants
  concentrations conferring protection from cisplatin-induced cell death: 20 to 100 µM

## CN(C)CCOc1ccc(-c2cc(-c3ccc4c(c3)CC/C4=N\O)c(-c3ccncc3)o2)cc1 [Compound 14]
HEI-OC1 cells [4]; mouse, 22 h
  HEI-OC1 LD50: >10 µM
HEI-OC1 cells [6]; [9]
  IC50: 1300 nM

## O=c1c2ccccc2[se]n1-c1ccccc1 [Ebselen, 2-phenyl-1,2-benzisoselenazol-3-one, reference compound]
HEI-OC1 cells [6]; dose response
  potency in protection against cisplatin: low potency

## CCCCCC[C@H]1C(=O)OC(C)C(NC(=O)c2cccc(NC=O)c2O)C(=O)O[C@@H](C)C1OC(=O)CC(C)C (stereo partly drawn) [Compound 5, Antimycin A]
[1]; P3 cochlear explants
  Mouse Explant LD50: <4 µM
[2]
  Zebrafish IC50: No
[3]
  Zebrafish LD50: <0.6 µM
HEI-OC1 cells [4]; [12]
  HEI-OC1 LD50: >10 µM
[5]; [11]
  IC50: ~1800 nM
[5]
  OHCs protected against cisplatin (For x%): (For 31%)
HEI-OC1 cells [6]; [9]
  IC50: 40 nM

## Cc1oncc1C(=O)Nc1ccc(C(F)(F)F)cc1 [Compound 1, Leflunomide]
[1]; mouse, 24 h
  Mouse Explant LD50: >50 µM
[2]
  Zebrafish IC50: No
[3]
  Zebrafish LD50: >5.0 µM
HEI-OC1 cells [4]; mouse, 22 h
  HEI-OC1 LD50: >40 µM
[5]
  OHC survival: 100%
HEI-OC1 cells [6]; [9]
  IC50: 3000 nM

## CC(C)COC(=O)c1ccc2[nH]c(O)c(/C=N/c3ccc(S(N)(=O)=O)cc3)c2c1 [Compound 18]
HEI-OC1 cells [4]; mouse, 22 h
  HEI-OC1 LD50: >40 µM
HEI-OC1 cells [6]; [9]
  IC50: 3400 nM

## COC(=O)C[C@H](NC(=O)[C@H](C)NC(=O)[C@@H](NC(=O)OCc1ccccc1)C(C)C)C(=O)CF [zVAD-fmk] (Cbz-Val-Ala-Asp(OMe)-CH2F)
Mouse cochlear explants; read-out: IC50, inhibition of cisplatin-induced cell death in the mouse cochlea
  IC50: 200 nM

## OC[C@H]1OC(c2nc3ccccc3[nH]2)[C@H](O)[C@@H]1O (stereo partly drawn) [Compound 13, D-Ribofuranosyl- benzimidazole]
[2]
  Zebrafish IC50: No
[3]
  Zebrafish LD50: >75 µM
HEI-OC1 cells [4]; mouse, 22 h
  HEI-OC1 LD50: >40 µM
[5]; [11]
  IC50: ~8000 nM
[5]
  OHCs protected against cisplatin (For x%): (For 76%)
HEI-OC1 cells [6]; [9]
  IC50: 4000 nM

## O=c1cc(CN2CCOCC2)occ1OCCCCCSc1ccnc2cc(C(F)(F)F)ccc12 [Compound 7, EHT1864]
[8]
  interference with cisplatin anti-tumor activity: no interference in all tumor cell lines (except one for Compound 7)
[1]; mouse, 24 h
  Mouse Explant LD50: <20 µM
[2]
  Zebrafish IC50: No
[3]
  Zebrafish LD50: <1.0 µM
HEI-OC1 cells [4]; mouse, 22 h
  HEI-OC1 LD50: >20 µM
[5]; [11]
  IC50: ~10000 nM
[5]
  OHCs protected against cisplatin (For x%): (For 58%)
HEI-OC1 cells [6]; [9]
  IC50: 2000 nM

## O=C(Nc1n[nH]c2nc(-c3ccc(O)cc3)c(Br)cc12)C1CC1 [Compound 16]
HEI-OC1 cells [4]; mouse, 22 h
  HEI-OC1 LD50: >40 µM
HEI-OC1 cells [6]; [9]
  IC50: 800 nM
